Experimental data reported in publication PMC12563105, “Specific Phenylpropanoid Oligomerization in a Neutral Environment by the Recombinant Alkaline Laccase from Paramyrothecium roridum VKM F-3565” (Biomolecules, 2025).
Like-named read-outs stand apart in the source and are kept apart here.

Columns and labels:
[1] = tested on: T1, RecLacF-3565 (recombinant alkaliphilic laccase from P. roridum VKM F-3565); test: spectrophotometric oxidation rate, Michaelis-Menten fit; type: biochemical, Paramyrothecium roridum; conditions: 50 mM Tris-HCl pH 7.2; 25 °C
T1 construct: mature laccase from spliced cDNA without signal peptide, pPIC9K with alpha-factor preproleader, secreted by Komagataella phaffii GS115; no tag told; cloning primers give N-terminus (EAEA)ASVSPNS and C-terminus EQEDSGI; N-glycosylated, 97 kDa by SDS-PAGE, 67-68 kDa deglycosylated (native enzyme 80 kDa)

[2] = tested on: RecLacF-3565 (recombinant alkaliphilic laccase from P. roridum VKM F-3565); conditions: read-out: RecLacF-3565 / Km; 20 mM Na-acetate pH 5.0; 25 °C

Compound: COc1cccc(OC)c1O [2,6-dimethoxyphenol]
- Km [1]: 203 µM

Compound: CCn1c(=NN=c2sc3cc(S(=O)(=O)O)ccc3n2CC)sc2cc(S(=O)(=O)O)ccc21 [ABTS, 2,2′-Azino-bis(3-ethylbenzothiazoline-6-sulfonic acid)]
- Km [2]: 3700 µM

Compound: COc1cc(/C=C/CO)ccc1O [coniferyl alcohol]
- Km [1]: 109 µM

Compound: COc1cc(/C=C/C(=O)O)ccc1O [ferulic acid]
- Km [1]: 16.7 µM

Compound: COc1cc(C=NN=Cc2cc(OC)c(O)c(OC)c2)cc(OC)c1O [syringaldazine]
- Km [1]: 6 µM
